The results in this text go back to ChEMBL document CHEMBL1152321, “Recent advances in the chemistry and biology of new generation taxoids” (J Nat Prod, 2009).

pIC50: −log10 of the molar value.

Assay [1] in a line: Cytotoxicity against P-glycoprotein deficient wild type human LCC-6 cells after 72 hrs. In kind it is functional, cell-based. As to conditions: LCC-6, 72 h.
Assay [2] can be described thus: Resistance factor, ratio of IC50 for human LCC-6 cells expressing P-glycoprotein to IC50 for P-glycoprotein deficient wild type human LCC-6 cells. Format: functional. Also on record: reference not given here.
Assay [3] relates to MCF7. Briefly: Resistance factor, ratio of IC50 for P-glycoprotein deficient wild type human MCF7 cells to IC50 for multidrug-resistant human NCI/ADR cells. Format: functional.
The nature of assay [4]: Cytotoxicity against human LCC-6 cells expressing P-glycoprotein after 72 hrs. In kind it is functional, cell-based. Conditions: LCC-6, 72 h.
For assay [5], the system named is MCF7. Briefly: Cytotoxicity against P-glycoprotein deficient wild type human MCF7 cells after 72 hrs. Format: functional, cell-based. As to conditions: MCF7, 72 h.
The subject of assay [6] is MCF7. In words: Cytotoxicity against human MCF7 cells expressing P-glycoprotein after 72 hrs. In kind it is functional, cell-based. As to conditions: MCF7, 72 h.
Assay [7] concerns MCF7. In words: Resistance factor, ratio of IC50 for human MCF7 cells expressing P-glycoprotein to IC50 for P-glycoprotein deficient wild type human MCF7 cells. Format: functional.
In another assay the test system is NCI-H460. In words: Cytotoxicity against human H460 cells after 72 hrs. Format: functional, cell-based. Conditions: NCI-H460, 72 h.
In another assay the test system is HT-29. Briefly: Cytotoxicity against human HT-29 cells after 72 hrs. Format: functional, cell-based. Conditions: HT-29, 72 h.

A word on the pIC50: it is −log10 of the IC50, conventionally taken in molar units. In [1], `CCC(=O)O[C@H]1C(=O)[C@@]2(C)[C@H]([C@H](OC(=O)c3cccc(OC)c3)[C@]3(O)C[C@H](OC(=O)[C@H](O)[C@H](CC(C)C)NC(=O)OC4CCCC4)C(C)=C1C3(C)C)[C@]1(OC(C)=O)CO[C@@H]1C[C@@H]2O` showed a pIC50 of 9.12. Further, the Ratio in assay [2] stood at 3.4; in the assay with MCF7 [3] it was 6.9.

Molecule `CCC(=O)O[C@H]1C(=O)[C@@]2(C)[C@H]([C@H](OC(=O)c3cccc(OC)c3)[C@]3(O)C[C@H](OC(=O)[C@H](O)[C@H](C=C(C)C)NC(=O)C4CC4)C(C)=C1C3(C)C)[C@]1(OC(C)=O)CO[C@@H]1C[C@@H]2O` showed a pIC50 in assay [1] of 8.96. For the same molecule, the Ratio worked out at 16 in assay [2] and 15.6 in the assay with MCF7 [3].

On to `CCC(=O)O[C@H]1C(=O)[C@@]2(C)[C@H]([C@H](OC(=O)c3ccccc3)[C@]3(O)C[C@H](OC(=O)[C@H](O)[C@H](CC(C)C)NC(=O)C4CCCCC4)C(C)=C1C3(C)C)[C@]1(OC(C)=O)CO[C@@H]1C[C@@H]2O`, for which the pIC50 in assay [1] is 8.24. Besides, the Ratio in assay [2] was determined as 5.5; in the assay with MCF7 [3] it was 13.

On to `CCC(=O)O[C@H]1C(=O)[C@@]2(C)[C@H]([C@H](OC(=O)c3ccccc3)[C@]3(O)C[C@H](OC(=O)[C@H](O)[C@H](CC(C)C)NC(=O)OC4CCCCC4)C(C)=C1C3(C)C)[C@]1(OC(C)=O)CO[C@@H]1C[C@@H]2O`, for which the pIC50 in assay [1] is 8.32. The Ratio in assay [2] was determined as 3.8; in the assay with MCF7 [3], 10.

In the case of `CCC(=O)O[C@H]1C(=O)[C@@]2(C)[C@H]([C@H](OC(=O)c3cccc(OC)c3)[C@]3(O)C[C@H](OC(=O)[C@H](O)[C@H](C=C(C)C)NC(=O)C4CCCC4)C(C)=C1C3(C)C)[C@]1(OC(C)=O)CO[C@@H]1C[C@@H]2O`, the pIC50 in assay [1] was 8.96. The results for the Ratio (in assay [2]; with MCF7 [3]) were 10 and 32, respectively.

As to `CCC(=O)O[C@H]1C(=O)[C@@]2(C)[C@H]([C@H](OC(=O)c3ccccc3)[C@]3(O)C[C@H](OC(=O)[C@H](O)[C@H](CC(C)C)NC(=O)C4CCCC4)C(C)=C1C3(C)C)[C@]1(OC(C)=O)CO[C@@H]1C[C@@H]2O`, the pIC50 in [1] was 8.20. For the same molecule, the Ratio is 10 in assay [2] and 12 in the assay with MCF7 [3].

On to `COc1ccc(CC(=O)O[C@H]2C(=O)[C@@]3(C)[C@H]([C@H](OC(=O)c4cccc(OC)c4)[C@]4(O)C[C@H](OC(=O)[C@H](O)[C@H](C=C(C)C)NC(=O)OC(C)(C)C)C(C)=C2C4(C)C)[C@]2(OC(C)=O)CO[C@@H]2C[C@@H]3O)cc1`, for which the pIC50 in assay [1] was 9.40. For the same molecule, the Ratio was found to be 1 in assay [2] and 3 with MCF7 [3].

With `CCC(=O)O[C@H]1C(=O)[C@@]2(C)[C@H]([C@H](OC(=O)c3cccc(OC)c3)[C@]3(O)C[C@H](OC(=O)[C@H](O)[C@H](C=C(C)C)NC(=O)OC4CCCCC4)C(C)=C1C3(C)C)[C@]1(OC(C)=O)CO[C@@H]1C[C@@H]2O`, the pIC50 in assay [1] is 8.91. Moreover, the values for the Ratio (in assay [2]; with MCF7 [3]) were 12 and 9.7, respectively.

`C=CC[C@H](NC(=O)OC(C)(C)C)[C@@H](O)C(=O)O[C@H]1C[C@@]2(O)[C@@H](OC(=O)c3cccc(OC)c3)[C@@H]3[C@]4(OC(C)=O)CO[C@@H]4C[C@H](O)[C@@]3(C)C(=O)[C@H](OC(=O)CC)C(=C1C)C2(C)C` had a pIC50 in assay [1] of 8.92. Besides, the Ratio turned out to be 7 in [2] and 10.9 in the assay with MCF7 [3].

Take `CCC(=O)O[C@H]1C(=O)[C@@]2(C)[C@H]([C@H](OC(=O)c3ccccc3)[C@]3(O)C[C@H](OC(=O)[C@H](O)[C@H](C=C(C)C)NC(=O)OC(C)(C)C)C(C)=C1C3(C)C)[C@]1(OC(C)=O)CO[C@@H]1C[C@@H]2O`: the Ratio in the assay with MCF7 [3] is listed as 22.

As to `CCC(=O)O[C@H]1C(=O)[C@@]2(C)[C@H]([C@H](OC(=O)c3ccccc3)[C@]3(O)C[C@H](OC(=O)[C@H](O)[C@H](C=C(C)C)NC(=O)C4=CCCCC4)C(C)=C1C3(C)C)[C@]1(OC(C)=O)CO[C@@H]1C[C@@H]2O`, the pIC50 in assay [1] was 8.92. For the same molecule, the Ratio in [2] turned out to be 9.2; in the assay with MCF7 [3], 13.

Regarding `CCC(=O)O[C@H]1C(=O)[C@@]2(C)[C@H]([C@H](OC(=O)c3ccccc3)[C@]3(O)C[C@H](OC(=O)[C@H](O)[C@H](C=C(C)C)NC(=O)C4CCCCC4)C(C)=C1C3(C)C)[C@]1(OC(C)=O)CO[C@@H]1C[C@@H]2O`, the negative logarithm of the IC50 (pIC50) in assay [1] was 8.89. The Ratio in [2] is reported as 10; in the assay with MCF7 [3] it was 18.

Molecule `CCC(=O)O[C@H]1C(=O)[C@@]2(C)[C@H]([C@H](OC(=O)c3ccccc3)[C@]3(O)C[C@H](OC(=O)[C@H](O)[C@H](C=C(C)C)NC(=O)C4CCCC4)C(C)=C1C3(C)C)[C@]1(OC(C)=O)CO[C@@H]1C[C@@H]2O` showed a pIC50 in assay [1] of 8.96. Moreover, the Ratio in [2] is listed as 17; with MCF7 [3], 20.

For the molecule `CCC(=O)O[C@H]1C(=O)[C@@]2(C)[C@H]([C@H](OC(=O)c3ccccc3)[C@]3(O)C[C@H](OC(=O)[C@H](O)[C@H](C=C(C)C)NC(=O)C4=CCCC4)C(C)=C1C3(C)C)[C@]1(OC(C)=O)CO[C@@H]1C[C@@H]2O`, the negative logarithm of the IC50 (pIC50) in assay [1] is 8.92. In addition, the Ratio in assay [2] stood at 12; in the assay with MCF7 [3], 15.

As to `CCC(=O)O[C@H]1C(=O)[C@@]2(C)[C@H]([C@H](OC(=O)c3ccccc3)[C@]3(O)C[C@H](OC(=O)[C@H](O)[C@H](CC(C)C)NC(=O)OC(C)(C)C)C(C)=C1C3(C)C)[C@]1(OC(C)=O)CO[C@@H]1C[C@@H]2O`, in the assay on MCF7 [3], the Ratio was determined as 15.

Consider `CCC(=O)O[C@H]1C(=O)[C@@]2(C)[C@H]([C@H](OC(=O)c3cccc(OC)c3)[C@]3(O)C[C@H](OC(=O)[C@H](O)[C@H](CC(C)C)NC(=O)C4CCCCC4)C(C)=C1C3(C)C)[C@]1(OC(C)=O)CO[C@@H]1C[C@@H]2O`, for which the pIC50 in [1] was 9.00. Also, the Ratio in [2] was 12; with MCF7 [3] it was 9.3.

In assay [1], `COC(=O)O[C@H]1C(=O)[C@@]2(C)[C@H]([C@H](OC(=O)c3cccc(OC)c3)[C@]3(O)C[C@H](OC(=O)[C@H](O)[C@H](C=C(C)C)NC(=O)OC(C)(C)C)C(C)=C1C3(C)C)[C@]1(OC(C)=O)CO[C@@H]1C[C@@H]2O` showed a pIC50 of 9.22. Also, the Ratio in assay [2] was found to be 2.7; in the assay on MCF7 [3], 3.5.

In assay [1], `CCC(=O)O[C@H]1C(=O)[C@@]2(C)[C@H]([C@H](OC(=O)c3cccc(OC)c3)[C@]3(O)C[C@H](OC(=O)[C@H](O)[C@H](CC(C)C)NC(=O)C4CC4)C(C)=C1C3(C)C)[C@]1(OC(C)=O)CO[C@@H]1C[C@@H]2O` gave a pIC50 of 9.22. Further, the Ratio in assay [2] is given as 22; with MCF7 [3], 30.

In assay [1], `COc1cccc(C(=O)O[C@H]2[C@@H]3[C@]4(OC(C)=O)CO[C@@H]4C[C@H](O)[C@@]3(C)C(=O)[C@H](OC(=O)OCc3ccccc3)C3=C(C)[C@@H](OC(=O)[C@H](O)[C@H](C=C(C)C)NC(=O)OC(C)(C)C)C[C@]2(O)C3(C)C)c1` had a pIC50 of 8.92. Moreover, the Ratio in [2] was 1.5; in the assay with MCF7 [3], 7.5.

Regarding `CCC(=O)O[C@H]1C(=O)[C@@]2(C)[C@H]([C@H](OC(=O)c3ccccc3)[C@]3(O)C[C@H](OC(=O)[C@H](O)[C@H](CC(C)C)NC(=O)OC4CCCC4)C(C)=C1C3(C)C)[C@]1(OC(C)=O)CO[C@@H]1C[C@@H]2O`, the pIC50 in assay [1] is 8.59. The Ratio in [2] came to 5.4; in the assay with MCF7 [3] it was 6.8.

As to `COc1cccc(C(=O)O[C@H]2[C@@H]3[C@]4(OC(C)=O)CO[C@@H]4C[C@H](O)[C@@]3(C)C(=O)[C@H](OC(=O)c3ccccc3OC)C3=C(C)[C@@H](OC(=O)[C@H](O)[C@H](C=C(C)C)NC(=O)OC(C)(C)C)C[C@]2(O)C3(C)C)c1`, the pIC50 in [1] is 9.40. For the same molecule, the Ratio in assay [2] was 2.3; with MCF7 [3] it was 3.

`C=CCC[C@H](NC(=O)OC(C)(C)C)[C@@H](O)C(=O)O[C@H]1C[C@@]2(O)[C@@H](OC(=O)c3cccc(OC)c3)[C@@H]3[C@]4(OC(C)=O)CO[C@@H]4C[C@H](O)[C@@]3(C)C(=O)[C@H](OC(=O)CC)C(=C1C)C2(C)C` showed a pIC50 in assay [1] of 9.05. Also, the Ratio came out at 6 in assay [2] and 3.9 in the assay with MCF7 [3].

Turning to `CCC(=O)O[C@H]1C(=O)[C@@]2(C)[C@H]([C@H](OC(=O)c3ccccc3)[C@]3(O)C[C@H](OC(=O)[C@H](O)[C@H](C=C(C)C)NC(=O)C4CCC4)C(C)=C1C3(C)C)[C@]1(OC(C)=O)CO[C@@H]1C[C@@H]2O`, in [1], the negative logarithm of the IC50 (pIC50) was 8.89. Besides, the Ratio stood at 26 in [2] and 34 in the assay on MCF7 [3].

For the molecule `CC(=O)O[C@H]1C(=O)[C@@]2(C)[C@H]([C@H](OC(=O)c3cccc(N=[N+]=[N-])c3)[C@]3(O)C[C@H](OC(=O)[C@H](O)[C@@H](NC(=O)OC(C)(C)C)C(F)(F)F)C(C)=C1C3(C)C)[C@]1(OC(C)=O)CO[C@@H]1C[C@@H]2O`, the negative logarithm of the IC50 (pIC50) is 8.93 in assay [1]; 8.40 in [4]; 9.33 in the assay on MCF7 [5]; 8.41 in the assay on MCF7 [6]; 9.70 in the assay with NCI-H460; 9.30 in the assay with HT-29. For the same molecule, the figures for the Ratio (in [2]; in the assay with MCF7 [7]) were 3.4 and 8.2, respectively.

For `CC(=O)O[C@H]1C(=O)[C@@]2(C)[C@H]([C@H](OC(=O)c3cccc(Cl)c3)[C@]3(O)C[C@H](OC(=O)[C@H](O)[C@@H](NC(=O)OC(C)(C)C)C(F)F)C(C)=C1C3(C)C)[C@]1(OC(C)=O)CO[C@@H]1C[C@@H]2O`, the pIC50 in assay [1] is 9.51; in [4], 8.24; with MCF7 [5], 9.40; in the assay on MCF7 [6], 8.19; in the assay on NCI-H460, 9.31; with HT-29, 8.71. The Ratio in [2] stood at 19; in the assay with MCF7 [7], 16.
